Bridge positions count the residues as written; N and C are the ends. Square brackets hold non-standard residues; d marks the D form. Peptide text beside a SMILES is read from it. * marks the point of attachment. Trp(1-CH2COOH) = N[C@@H](Cc1cn(CC(=O)O)c2ccccc12)C(=O)O; Trp(1-Me) = Cn1cc(C[C@H](N)C(=O)O)c2ccccc21; Phe(4-F) = N[C@@H](Cc1ccc(F)cc1)C(=O)O; Hyp = O=C(O)[C@@H]1C[C@@H](O)CN1; NMeNle = CCCC[C@H](NC)C(=O)O; Pen = CC(C)(S)[C@H](N)C(=O)O; Pip = O=C(O)[C@@H]1CCCCN1; Dab = NCC[C@H](N)C(=O)O; Dap = NC[C@H](N)C(=O)O; Piv = CC(C)(C)C(=O)*
Molecular target: T1, PD-1/PD-L1 (Homo sapiens, UniProt Q9NZQ7)
T1 construct: TVMV protease site linker (C); made in house; host or cells: HEK293T cells
Assay: PD-1/PD-L1 Homogenous Time-Resolved Fluorescence (HTRF) binding assay
Conditions: PD-L1-His 10 nM final, PD-1-Ig 20 nM final; inhibitors pre-incubated with PD-L1-His for 15 m
Summary of the method: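 Compounds pre-incubated 15 min with human PD-L1(18-239)-His (10 nM final), then PD-1(25-167)-Ig (20 nM final) added for 15 min, in dPBS with 0.1% BSA and 0.05% Tween-20. Eu-cryptate anti-Ig (1 nM) and APC anti-His (20 nM) added, 30 min equilibration, 665/620 nm ratio read; IC50 reported.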

Row | SMILES | IC50 [nM]
1 | CCCC[C@H]1C(=O)N(C)[C@@H](CCCC)C(=O)N[C@@H](CCC(=O)O)C(=O)N[C@H](C(N)=O)CSCC(=O)N[C@@H](Cc2ccc(F)cc2)C(=O)N2CCCC[C@H]2C(=O)N[C@@H](CC(N)=O)C(=O)N2CCC[C@H]2C(=O)N[C@@H](CNC(=O)C(C)(C)C)C(=O)N[C@@H](CC(C)C)C(=O)N2C[C@H](O)C[C@H]2C(=O)N[C@@H](Cc2c[nH]c3ccccc23)C(=O)N[C@@H](CCN)C(=O)N[C@@H](Cc2cn(CC(=O)O)c3ccccc23)C(=O)N1C [Example 20130] ({CH2CO}-[Phe(4-F)][Pip]NP[Dap](Piv)L[Hyp]W[Dab][Trp(1-CH2COOH)][NMeNle][NMeNle]EC-NH2; thioether N-14) | 11.8
2 | CCCC[C@H]1C(=O)N(C)[C@@H](CCCC)C(=O)N[C@@H](CCC(N)=O)C(=O)N[C@H](C(N)=O)CSCC(=O)N[C@@H](Cc2ccc(F)cc2)C(=O)N2CCCC[C@H]2C(=O)N[C@@H](CC(N)=O)C(=O)N2CCC[C@H]2C(=O)N[C@@H](CNC(=O)C(C)(C)C)C(=O)N[C@@H](CC(C)C)C(=O)N2C[C@H](O)C[C@H]2C(=O)N[C@@H](Cc2c[nH]c3ccccc23)C(=O)N[C@@H](CCN)C(=O)N[C@@H](Cc2cn(C)c3ccccc23)C(=O)N1C [Example 20150] ({CH2CO}-[Phe(4-F)][Pip]NP[Dap](Piv)L[Hyp]W[Dab][Trp(1-Me)][NMeNle][NMeNle]QC-NH2; thioether N-14) | 12.5
3 | CCCC[C@H]1C(=O)N(C)[C@@H](CCCC)C(=O)N[C@@H](CCC(=O)O)C(=O)N[C@H](C(N)=O)CSCC(=O)N[C@@H](Cc2ccc(F)cc2)C(=O)N2CCCC[C@H]2C(=O)N[C@@H](CC(=O)O)C(=O)N2CCC[C@H]2C(=O)N[C@@H](CNC(=O)C(C)(C)C)C(=O)N[C@@H](CC(C)C)C(=O)N2C[C@H](O)C[C@H]2C(=O)N[C@@H](Cc2c[nH]c3ccccc23)C(=O)N[C@@H](CCN)C(=O)N[C@@H](Cc2cn(CC(=O)O)c3ccccc23)C(=O)N1C [Example 20170] ({CH2CO}-[Phe(4-F)][Pip]DP[Dap](Piv)L[Hyp]W[Dab][Trp(1-CH2COOH)][NMeNle][NMeNle]EC-NH2; thioether N-14) | 14
4 | CCCC[C@H]1C(=O)N(C)[C@@H](CCCC)C(=O)N[C@@H](CC(C)C)C(=O)N[C@H](C(N)=O)C(C)(C)SCC(=O)N[C@@H](Cc2ccc(F)cc2)C(=O)N2CCCC[C@H]2C(=O)N[C@@H](CC(=O)O)C(=O)N2CCC[C@H]2C(=O)N[C@@H](CNC(=O)C(C)(C)C)C(=O)N[C@@H](CC(C)C)C(=O)N2C[C@H](O)C[C@H]2C(=O)N[C@@H](Cc2c[nH]c3ccccc23)C(=O)N[C@@H](CCNC(=O)C(C)(C)C)C(=O)N[C@@H](Cc2cn(CC(=O)O)c3ccccc23)C(=O)N1C [Example 20180] ({CH2CO}-[Phe(4-F)][Pip]DP[Dap](Piv)L[Hyp]W[Dab](Piv)[Trp(1-CH2COOH)][NMeNle][NMeNle]L[Pen]-NH2; thioether N-14) | 14.1
5 | CCCC[C@H]1C(=O)N(C)[C@@H](CCCC)C(=O)N[C@@H](CC(C)C)C(=O)N[C@H](C(N)=O)CSCC(=O)N[C@@H](Cc2ccc(F)cc2)C(=O)N2CCCC[C@H]2C(=O)N[C@@H](CC(=O)O)C(=O)N2CCC[C@H]2C(=O)N[C@@H](CNC(=O)C(C)(C)C)C(=O)N[C@@H](CC(C)C)C(=O)N2C[C@H](O)C[C@H]2C(=O)N[C@@H](Cc2c[nH]c3ccccc23)C(=O)N[C@@H](CCN)C(=O)N[C@@H](Cc2cn(C)c3ccccc23)C(=O)N1C [Example 20190] ({CH2CO}-[Phe(4-F)][Pip]DP[Dap](Piv)L[Hyp]W[Dab][Trp(1-Me)][NMeNle][NMeNle]LC-NH2; thioether N-14) | 14.2
6 | CCCC[C@H]1C(=O)N(C)[C@@H](CCCC)C(=O)N[C@@H](CC(C)C)C(=O)N[C@H](C(N)=O)CSCC(=O)N[C@@H](Cc2ccc(F)cc2)C(=O)N2CCCC[C@H]2C(=O)N[C@@H](CC(N)=O)C(=O)N2CCC[C@H]2C(=O)N[C@@H](CNC(=O)C(C)(C)C)C(=O)N[C@@H](CC(C)C)C(=O)N2C[C@H](O)C[C@H]2C(=O)N[C@@H](Cc2c[nH]c3ccccc23)C(=O)N[C@@H](CCNC(=O)C(C)(C)C)C(=O)N[C@@H](Cc2cn(CC(=O)O)c3ccccc23)C(=O)N1C [Example 20200] ({CH2CO}-[Phe(4-F)][Pip]NP[Dap](Piv)L[Hyp]W[Dab](Piv)[Trp(1-CH2COOH)][NMeNle][NMeNle]LC-NH2; thioether N-14) | 15.8
7 | CCCC[C@H]1C(=O)N(C)[C@@H](CCCC)C(=O)N[C@@H](CC(C)C)C(=O)N[C@H](C(N)=O)C(C)(C)SCC(=O)N[C@@H](Cc2ccc(F)cc2)C(=O)N2CCCC[C@H]2C(=O)N[C@@H](CC(=O)O)C(=O)N2CCC[C@H]2C(=O)N[C@@H](CNC(=O)C(C)(C)C)C(=O)N[C@@H](CC(C)C)C(=O)N2C[C@H](O)C[C@H]2C(=O)N[C@@H](Cc2c[nH]c3ccccc23)C(=O)N[C@@H](CCN)C(=O)N[C@@H](Cc2cn(C)c3ccccc23)C(=O)N1C [Example 20210] ({CH2CO}-[Phe(4-F)][Pip]DP[Dap](Piv)L[Hyp]W[Dab][Trp(1-Me)][NMeNle][NMeNle]L[Pen]-NH2; thioether N-14) | 16.4
8 | CCCC[C@H]1C(=O)N(C)[C@@H](CCCC)C(=O)N[C@@H](CCC(N)=O)C(=O)N[C@H](C(N)=O)C(C)SCC(=O)N[C@@H](Cc2ccc(F)cc2)C(=O)N2CCCC[C@H]2C(=O)N[C@@H](CC(N)=O)C(=O)N2CCC[C@H]2C(=O)N[C@@H](CNC(=O)C(C)(C)C)C(=O)N[C@@H](C(C)C)C(=O)N2C[C@H](O)C[C@H]2C(=O)N[C@@H](Cc2c[nH]c3ccccc23)C(=O)N[C@@H](CCN)C(=O)N[C@@H](Cc2cn(C)c3ccccc23)C(=O)N1C (some centres unmarked) [Example 20220] | 16.6
9 | CCCC[C@H]1C(=O)N(C)[C@@H](CCCC)C(=O)N[C@@H](CCC(=O)O)C(=O)N[C@H](C(N)=O)CSCC(=O)N[C@@H](Cc2ccc(F)cc2)C(=O)N2CCCC[C@H]2C(=O)N[C@@H](CC(N)=O)C(=O)N2CCC[C@H]2C(=O)N[C@@H](CNC(=O)C(C)(C)C)C(=O)N[C@@H](CC(C)C)C(=O)N2C[C@H](O)C[C@H]2C(=O)N[C@@H](Cc2c[nH]c3ccccc23)C(=O)N[C@@H](CCNC(=O)C(C)(C)C)C(=O)N[C@@H](Cc2cn(C)c3ccccc23)C(=O)N1C [Example 20230] ({CH2CO}-[Phe(4-F)][Pip]NP[Dap](Piv)L[Hyp]W[Dab](Piv)[Trp(1-Me)][NMeNle][NMeNle]EC-NH2; thioether N-14) | 16.6
10 | CCCC[C@H]1C(=O)N(C)[C@@H](CCCC)C(=O)N[C@@H](CCC(N)=O)C(=O)N[C@H](C(N)=O)CSCC(=O)N[C@@H](Cc2ccc(F)cc2)C(=O)N2CCCC[C@H]2C(=O)N[C@@H](CC(=O)O)C(=O)N2CCC[C@H]2C(=O)N[C@@H](CNC(=O)C(C)(C)C)C(=O)N[C@@H](CCCCN)C(=O)N2C[C@H](O)C[C@H]2C(=O)N[C@@H](Cc2c[nH]c3ccccc23)C(=O)N[C@@H](CCN)C(=O)N[C@@H](Cc2cn(C)c3ccccc23)C(=O)N1C [Example 20240] ({CH2CO}-[Phe(4-F)][Pip]DP[Dap](Piv)K[Hyp]W[Dab][Trp(1-Me)][NMeNle][NMeNle]QC-NH2; thioether N-14) | 18.4
11 | CCCC[C@H]1C(=O)N(C)[C@@H](CCCC)C(=O)N[C@@H](CC(C)C)C(=O)N[C@H](C(N)=O)CSCC(=O)N[C@@H](Cc2ccc(F)cc2)C(=O)N2CCCC[C@H]2C(=O)N[C@@H](CC(=O)O)C(=O)N2CCC[C@H]2C(=O)N[C@@H](CNC(=O)C(C)(C)C)C(=O)N[C@@H](CC(C)C)C(=O)N2C[C@H](O)C[C@H]2C(=O)N[C@@H](Cc2c[nH]c3ccccc23)C(=O)N[C@@H](CCNC(=O)C(C)(C)C)C(=O)N[C@@H](Cc2cn(CC(=O)O)c3ccccc23)C(=O)N1C [Example 20250] ({CH2CO}-[Phe(4-F)][Pip]DP[Dap](Piv)L[Hyp]W[Dab](Piv)[Trp(1-CH2COOH)][NMeNle][NMeNle]LC-NH2; thioether N-14) | 22.9
12 | CCCC[C@H]1C(=O)N(C)[C@@H](CCCC)C(=O)N[C@@H](CC(C)C)C(=O)N[C@H](C(N)=O)CSCC(=O)N[C@@H](Cc2ccc(F)cc2)C(=O)N2CCCC[C@H]2C(=O)N[C@@H](CC(N)=O)C(=O)N2CCC[C@H]2C(=O)N[C@@H](CNC(=O)C(C)(C)C)C(=O)N[C@@H](CC(C)C)C(=O)N2C[C@H](O)C[C@H]2C(=O)N[C@@H](Cc2c[nH]c3ccccc23)C(=O)N[C@@H](CCN)C(=O)N[C@@H](Cc2cn(C)c3ccccc23)C(=O)N1C [Example 20260] ({CH2CO}-[Phe(4-F)][Pip]NP[Dap](Piv)L[Hyp]W[Dab][Trp(1-Me)][NMeNle][NMeNle]LC-NH2; thioether N-14) | 28.9
13 | CCCC[C@H]1C(=O)N(C)[C@@H](CCCC)C(=O)N[C@@H](CCC(=O)O)C(=O)N[C@H](C(N)=O)CSCC(=O)N[C@@H](Cc2ccc(F)cc2)C(=O)N2CCCC[C@H]2C(=O)N[C@@H](CC(N)=O)C(=O)N2CCC[C@H]2C(=O)N[C@@H](CNC(=O)C(C)(C)C)C(=O)N[C@@H](CC(C)C)C(=O)N2C[C@H](O)C[C@H]2C(=O)N[C@@H](Cc2c[nH]c3ccccc23)C(=O)N[C@@H](CCN)C(=O)N[C@@H](Cc2cn(C)c3ccccc23)C(=O)N1C [Example 20270] ({CH2CO}-[Phe(4-F)][Pip]NP[Dap](Piv)L[Hyp]W[Dab][Trp(1-Me)][NMeNle][NMeNle]EC-NH2; thioether N-14) | 43.2
14 | CCCC[C@H]1C(=O)N(C)[C@@H](CCCC)C(=O)N[C@@H](CC(C)C)C(=O)N[C@H](C(N)=O)CSCC(=O)N[C@@H](Cc2ccc(F)cc2)C(=O)N2CCCC[C@H]2C(=O)N[C@@H](CC(N)=O)C(=O)N2CCC[C@H]2C(=O)N[C@@H](CNC(=O)C(C)(C)C)C(=O)N[C@@H](CC(C)C)C(=O)N2C[C@H](O)C[C@H]2C(=O)N[C@@H](Cc2c[nH]c3ccccc23)C(=O)N[C@@H](CCNC(=O)C(C)(C)C)C(=O)N[C@@H](Cc2cn(C)c3ccccc23)C(=O)N1C [Example 20280] ({CH2CO}-[Phe(4-F)][Pip]NP[Dap](Piv)L[Hyp]W[Dab](Piv)[Trp(1-Me)][NMeNle][NMeNle]LC-NH2; thioether N-14) | 50.3

— patent publication US20220251141A1, “IMMUNOMODULATORS” (Bristol-Myers Squibb Company, priority 2019, published 2022)
